US20160046618A1, “Cyclopropyl Fused Thiazin-2-Amine Compounds as Beta-Secretase Inhibitors and Methods of Use” (AMGEN INC., priority 2014, published 2016)

Tests used:
[1] = target: human recombinant BACE2 (Homo sapiens (Human), UniProt Q9Y5Z0); assay: In vitro enzymatic BACE2 FRET assay; assay type: biochemical; conditions: read-out: IC50 IP (μM) BACE2 enzyme
Summary of the method: (§1)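 Ni-NTA-purified recombinant protease incubated with compound; reaction started with 50 nM FRET peptide substrate (fluorophore/quencher flanking the BACE cleavage site) and run 1 h. Stopped with Tris buffer raising pH to neutral; fluorescence read at ex 488/em 590 nm.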

[2] = target: human recombinant BACE1 (Homo sapiens (Human), UniProt P56817); assay: In vitro enzymatic BACE1 FRET assay; assay type: biochemical; conditions: read-out: IC50 IP (μM) BACE1 enzyme
Summary of the method: as §1

[3] = system: Aβ40 in conditioned medium of cells stably expressing Amyloid Precursor Protein (APP); assay: In vitro BACE-1 cell-based assay (Aβ40 sandwich ELISA); conditions: read-out: IC50 IP (μM) BACE1 cell
Summary of the method: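 APP-expressing cells treated 24 h at 37 °C with compound in 10-point dose response (top 100 μM or 10 μM, 0.1% DMSO final). Secreted Aβ40 in conditioned medium quantified by sandwich ELISA (pAb40 capture, biotinylated 6E10 detection, time-resolved europium fluorescence); IC50 from percent inhibition versus concentration.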

[4] = target: Recombinant Cat D (Homo sapiens (Human), UniProt P07339); assay: In vitro enzymatic Cathepsin D (Cat D) FRET assay; assay type: biochemical; conditions: read-out: IC50 IP (μM) CatD
Summary of the method: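 Recombinant Cat D expressed in CHO cells, assayed in 0.05 M citrate pH 3.5 with 5 mM CHAPS and 10% DMSO final. Reaction started with 20 nM FRET peptide substrate, incubated one hour, then stopped by Tris buffer to neutral pH; fluorescence read at ex 500/em 580 nm.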

human recombinant BACE1, sequence (P56817 46-501): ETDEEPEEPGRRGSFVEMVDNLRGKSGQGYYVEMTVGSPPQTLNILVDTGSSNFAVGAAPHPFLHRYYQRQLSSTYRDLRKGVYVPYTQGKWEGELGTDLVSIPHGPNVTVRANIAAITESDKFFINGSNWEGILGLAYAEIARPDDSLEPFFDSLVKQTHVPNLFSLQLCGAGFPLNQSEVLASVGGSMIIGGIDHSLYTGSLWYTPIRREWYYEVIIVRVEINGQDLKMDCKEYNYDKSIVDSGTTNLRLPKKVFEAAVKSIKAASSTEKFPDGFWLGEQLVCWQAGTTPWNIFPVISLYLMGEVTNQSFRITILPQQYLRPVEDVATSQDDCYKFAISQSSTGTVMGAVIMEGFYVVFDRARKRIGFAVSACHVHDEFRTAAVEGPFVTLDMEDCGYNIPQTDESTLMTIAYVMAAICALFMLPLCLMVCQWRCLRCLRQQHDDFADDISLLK
human recombinant BACE2, sequence (Q9Y5Z0 63-518): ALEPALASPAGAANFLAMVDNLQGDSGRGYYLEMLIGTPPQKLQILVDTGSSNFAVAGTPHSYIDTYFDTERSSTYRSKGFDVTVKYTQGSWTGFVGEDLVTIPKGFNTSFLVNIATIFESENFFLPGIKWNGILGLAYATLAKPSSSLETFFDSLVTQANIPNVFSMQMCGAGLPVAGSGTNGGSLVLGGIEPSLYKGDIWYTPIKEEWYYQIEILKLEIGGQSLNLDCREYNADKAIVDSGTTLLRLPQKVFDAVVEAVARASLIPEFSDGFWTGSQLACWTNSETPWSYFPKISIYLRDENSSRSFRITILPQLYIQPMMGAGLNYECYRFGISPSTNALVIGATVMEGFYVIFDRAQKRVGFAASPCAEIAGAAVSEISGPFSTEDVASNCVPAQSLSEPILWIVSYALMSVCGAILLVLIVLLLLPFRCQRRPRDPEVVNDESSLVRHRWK
Recombinant Cat D, sequence (P07339 65-412): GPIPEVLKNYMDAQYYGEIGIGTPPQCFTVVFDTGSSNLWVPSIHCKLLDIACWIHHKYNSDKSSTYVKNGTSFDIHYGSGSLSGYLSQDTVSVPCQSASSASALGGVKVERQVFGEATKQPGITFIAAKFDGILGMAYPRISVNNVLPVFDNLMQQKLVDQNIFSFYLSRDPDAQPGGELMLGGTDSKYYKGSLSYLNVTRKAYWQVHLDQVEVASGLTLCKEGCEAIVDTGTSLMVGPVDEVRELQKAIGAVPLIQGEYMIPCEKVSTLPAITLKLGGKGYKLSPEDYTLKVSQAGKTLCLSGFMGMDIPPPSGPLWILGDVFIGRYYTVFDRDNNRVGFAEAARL

SMILES	IC50 [1]	IC50 [2]	IC50 [3]	IC50 [4]
COC[C@]12C[C@H]1[C@@](C)(c1cc(Nc3nccc4cc(OCC#CC(F)(F)F)cnc34)cc(F)c1F)N=C(N)S2 [Example 741, N-(3-((1S,5S,6S)-3-amino-1-(methoxymethyl)-5-methyl-2-thia-4-azabicyclo[4.1.0]hept-3-en-5-yl)-4,5-difluorophenyl)-3-((4,4,4-trifluoro-2-butyn-1-yl)oxy)-1,7-naphthyridin-8-amine]	0.658 µM	0.0269 µM	1.14 µM	94.4 µM
C[C@]1(c2cc(NC(=O)c3ccc(Cl)cn3)cc(F)c2F)N=C(N)S[C@@]2(S(C)(=O)=O)C[C@H]21 [Example 742, N-(3-((1R,5S,6S)-3-amino-5-methyl-1-(methylsulfonyl)-2-thia-4-azabicyclo[4.1.0]hept-3-en-5-yl)-4,5-difluorophenyl)-5-chloro-2-pyridinecarboxamide]	< 0.00203 µM	0.000719 µM	0.0149 µM	846 µM
C#CCOc1ccc(C(=O)Nc2cc(F)c(F)c([C@@]3(C)N=C(N)S[C@@]4(S(C)(=O)=O)C[C@H]43)c2)nc1 [Example 743, N-(3-((1R,5S,6S)-3-amino-5-methyl-1-(methylsulfonyl)-2-thia-4-azabicyclo[4.1.0]hept-3-en-5-yl)-4,5-difluorophenyl)-5-(2-propyn-1-yloxy)-2-pyridinecarboxamide]	0.00543 µM	0.000395 µM	0.00971 µM	> 133 µM
C#CCOc1cnc(C(=O)Nc2cc(F)c(F)c([C@@]3(C)N=C(N)S[C@@]4(S(C)(=O)=O)C[C@H]43)c2)cn1 [Example 744, N-(3-((1R,5S,6S)-3-amino-5-methyl-1-(methylsulfonyl)-2-thia-4-azabicyclo[4.1.0]hept-3-en-5-yl)-4,5-difluorophenyl)-5-(2-propyn-1-yloxy)-2-pyrazinecarboxamide]	0.0183 µM	0.00029 µM	0.000872 µM	46.5 µM
C[C@]1(c2cc(NC(=O)c3ccc(OCc4ncco4)cn3)cc(F)c2F)N=C(N)S[C@@]2(S(C)(=O)=O)C[C@H]21 [Example 745, N-(3-((1R,5S,6S)-3-amino-5-methyl-1-(methylsulfonyl)-2-thia-4-azabicyclo[4.1.0]hept-3-en-5-yl)-4,5-difluorophenyl)-5-(1,3-oxazol-2-ylmethoxy)-2-pyridinecarboxamide]	0.0257 µM	0.000898 µM	0.0175 µM	972 µM
C[C@]1(c2cc(NC(=O)c3cnc(OCc4ncco4)cn3)cc(F)c2F)N=C(N)S[C@@]2(S(C)(=O)=O)C[C@H]21 [Example 746, N-(3-((1R,5S,6S)-3-amino-5-methyl-1-(methylsulfonyl)-2-thia-4-azabicyclo[4.1.0]hept-3-en-5-yl)-4,5-difluorophenyl)-5-(1,3-oxazol-2-ylmethoxy)-2-pyrazinecarboxamide]	0.00522 µM	0.000628 µM	0.00356 µM	880 µM
C[C@]1(c2cc(Nc3nccc4nc(OCc5ncco5)cnc34)cc(F)c2F)N=C(N)S[C@@]2(S(C)(=O)=O)C[C@H]21 [Example 747, (1R,5S,6S)-5-(2,3-difluoro-5-((2-(oxazol-2-ylmethoxy)pyrido[3,4-b]pyrazin-5-yl)amino)phenyl)-5-methyl-1-(methylsulfonyl)-2-thia-4-azabicyclo[4.1.0]hept-3-en-3-amine]	0.0115 µM	0.00242 µM	0.0123 µM	1190 µM
C[C@]1(c2cc(NC(=O)c3ccc(Cl)cn3)cc(F)c2F)N=C(N)S[C@@H]2[C@H]1C2(F)F [Example 748, N-(3-((1R,5S,6R)-3-amino-7,7-difluoro-5-methyl-2-thia-4-azabicyclo[4.1.0]hept-3-en-5-yl)-4,5-difluorophenyl)-5-chloro-2-pyridinecarboxamide]	0.00284 µM	0.00807 µM	0.597 µM	129 µM
C#CCOc1cnc(C(=O)Nc2ccc(F)c([C@@]3(C)N=C(N)S[C@]4(CO)[C@H]3C4(F)F)c2)cn1 [Example 749, N-(3-((1S,5S,6R)-3-amino-7,7-difluoro-1-(hydroxymethyl)-5-methyl-2-thia-4-azabicyclo[4.1.0]hept-3-en-5-yl)-4-fluorophenyl)-5-(2-propyn-1-yloxy)-2-pyrazinecarboxamide]	0.00979 µM	0.000319 µM	0.00121 µM	101 µM
C[C@]1(c2cc(Nc3ncnc4cc(OCc5ncco5)cnc34)ccc2F)N=C(N)S[C@]2(CO)[C@H]1C2(F)F [Example 750, ((1S,5S,6R)-3-amino-7,7-difluoro-5-(2-fluoro-5-((7-(1,3-oxazol-2-ylmethoxy)pyrido[3,2-d]pyrimidin-4-yl)amino)phenyl)-5-methyl-2-thia-4-azabicyclo[4.1.0]hept-3-en-1-yl)methanol]	0.0404 µM	0.0019 µM	0.00301 µM	246 µM
C[C@]1(c2cc(NC(=O)c3ccc(OCC(F)(F)C(F)F)cn3)ccc2F)N=C(N)S[C@]2(CO)[C@H]1C2(F)F [Example 751, N-(3-((1S,5S,6R)-3-amino-7,7-difluoro-1-(hydroxymethyl)-5-methyl-2-thia-4-azabicyclo[4.1.0]hept-3-en-5-yl)-4-fluorophenyl)-5-(2,2,3,3-tetrafluoropropoxy)-2-pyridinecarboxamide]	0.255 µM	0.00203 µM	0.0338 µM	292 µM
NC1=N[C@](CF)(c2cc(NC(=O)c3ccc(Cl)cn3)ccc2F)[C@@H]2C3CSC[C@]32S1 (stereo partly drawn) [Example 753, N-(3-((4S,4aS,7aR)-2-amino-4-(fluoromethyl)-4a,4b,5,7-tetrahydro-4H-thieno[3′,4′:2,3]cyclopropa[1,2-e][1,3]thiazin-4-yl)-4-fluorophenyl)-5-chloropicolinamide]	0.00304 µM	0.00339 µM	0.0964 µM	420 µM
NC1=N[C@](CF)(c2cc(Nc3nncc4cc(Cl)cnc34)ccc2F)[C@@H]2C[C@@H]2S1 [Example 754, (1S,5S,6S)-5-(5-((3-chloropyrido[2,3-d]pyridazin-8-yl)amino)-2-fluorophenyl)-5-(fluoromethyl)-2-thia-4-azabicyclo[4.1.0]hept-3-en-3-amine]	0.00588 µM	0.0454 µM	0.0781 µM	844 µM
CCOC(=O)/C=C/[C@]12C[C@H]1[C@@](CF)(c1cc(NC(=O)c3ccc(Cl)cn3)ccc1F)N=C(N)S2 [Example 755, (E)-ethyl 3-((1R,5S,6S)-3-amino-5-(5-(5-chloropicolinamido)-2-fluorophenyl)-5-(fluoromethyl)-2-thia-4-azabicyclo[4.1.0]hept-3-en-1-yl)acrylate]	< 0.00203 µM	0.00147 µM	0.00838 µM	250 µM
NC1=N[C@](CF)(c2cc(NC(=O)c3ccc(Cl)cn3)ccc2F)[C@@H]2C[C@]2(/C=C/CO)S1 [Example 756, N-(3-((1R,5S,6S)-3-amino-5-(fluoromethyl)-1-((E)-3-hydroxyprop-1-en-1-yl)-2-thia-4-azabicyclo[4.1.0]hept-3-en-5-yl)-4-fluorophenyl)-5-chloropicolinamide]	< 0.00203 µM	0.00373 µM	0.00659 µM	> 400 µM
NC1=N[C@](CF)(c2cc(NC(=O)c3ccc(Cl)cn3)ccc2F)[C@@H]2C[C@]2(/C=C/C(=O)O)S1 [Example 757, (E)-3-((1R,5S,6S)-3-amino-5-(5-(5-chloropicolinamido)-2-fluorophenyl)-5-(fluoromethyl)-2-thia-4-azabicyclo[4.1.0]hept-3-en-1-yl)acrylic acid]	< 0.00203 µM	0.000176 µM	0.0498 µM	458 µM
NC1=N[C@](CF)(c2cc(NC(=O)c3ccc(Cl)cn3)ccc2F)[C@@H]2C[C@]2(CCCO)S1 [Example 758, N-(3-((1S,5S,6S)-3-amino-5-(fluoromethyl)-1-(3-hydroxypropyl)-2-thia-4-azabicyclo[4.1.0]hept-3-en-5-yl)-4-fluorophenyl)-5-chloropicolinamide]	< 0.00203 µM	0.00156 µM	0.00195 µM	2070 µM
NC(=O)/C=C/[C@]12C[C@H]1[C@@](CF)(c1cc(NC(=O)c3ccc(Cl)cn3)ccc1F)N=C(N)S2 [Example 759, N-(3-((1R,5S,6S)-3-amino-1-((E)-3-amino-3-oxoprop-1-en-1-yl)-5-(fluoromethyl)-2-thia-4-azabicyclo[4.1.0]hept-3-en-5-yl)-4-fluorophenyl)-5-chloropicolinamide]	< 0.00203 µM	0.00101 µM	0.00265 µM	> 400 µM
CNC(=O)/C=C/[C@]12C[C@H]1[C@@](CF)(c1cc(NC(=O)c3ccc(Cl)cn3)ccc1F)N=C(N)S2 [Example 760, N-(3-((1R,5S,6S)-3-amino-5-(fluoromethyl)-1-((E)-3-(methylamino)-3-oxoprop-1-en-1-yl)-2-thia-4-azabicyclo[4.1.0]hept-3-en-5-yl)-4-fluorophenyl)-5-chloropicolinamide]	< 0.00203 µM	0.000415 µM	0.00265 µM	779 µM
